Earlier results as cited in US7939522B1, “Dosage formulations for acetylcholinesterase inhibitors” (priority 1999, dated 2011).

Legend:
[1] = reported (Thomsen, 1990)
sleep = conditions: humans, systemic administration late in the day or at night (Sitaram, 1979, Reimann, 1994)

SMILES | half life [1] [h] | effect on sleep (sleep)
COc1ccc2c3c1O[C@H]1C[C@@H](O)C=C[C@@]31CCN(C)C2 [galanthamine] | 4.5 to 8 | 
CNC(=O)Oc1ccc2c(c1)[C@]1(C)CCN(C)[C@@H]1N2C [physostigmine] |  | disturb sleep and produce awakenings
